Laboratory results published in article PMC8252068, “Biochemical Investigation of the Interaction of pICln, RioK1 and COPR5 with the PRMT5–MEP50 Complex” (Chembiochem, 2021).
Where a SMILES comes first, the peptide text is derived from it. Side-chain parts run from the residue outwards. The star is where a group is joined. FITC = O=C1OC2(c3ccc(O)cc3Oc3cc(O)ccc32)c2ccc(NC(=S)*)cc21; AEEA = NCCOCCOCC(=O)O

Assays:
[1] = biological target: T1, native PRMT5–MEP50 complex (Homo sapiens, UniProt O14744+Q9BQA1); test: Fluorescence polarisation direct binding assay, full-length PRMT5–MEP50; details: FP using the native PRMT5–MEP50 complex, FITC peptide 1 nM, pH 8.0, 30 min, 20-21 °C, n=3, n.b. = no binding; for Kd: read-out: K D (Table 2, peptides 1–16)
T1 construct: Full‐length PRMT5–MEP50; 6His-MBP with 3C site (N, cleaved yes); made in house; host or cells: HighFive insect cells (flashBAC baculovirus system)
Source text: (§1) All proteins were expressed at the Protein Chemistry Facility (PCF) based in the MPI Dortmund.
(§2) For expression of the proteins, all constructs were subcloned into pOPIN vectors. […]
(§3) Expression of full-length human RioK1 tagged with 6NHis-3C and co-expression of full-length human PRMT5 (N-terminal 6His-MBP with 3C) with MEP50 (N-terminal 6His-TRX with 3C), and of TIM barrel (1-292 aa) with MEP50 (both N-terminally tagged with His-TRX with 3C cleavage site) was done using the Flash Bac Expression System (Oxford Expression Technologies, UK) with HighFive insect cells in Gibco Sf-900 III SFM medium. The cells were harvested by centrifugation and lysed.
(§4) All proteins were purified at the PCF (MPI Dortmund).
(§5) Protein purification was performed on HisTrap FF crude 5 ml Ni-based column, followed by the on-column treatment with 6His-tagged HRV-3C PreScission protease, or in case of the SUMO-tagged TIM barrel, with 6His-tagged SUMO protease. The cleaved proteins were then further purified using gel filtration chromatography with the HiLoad 26/60 Superdex 75 or 200 prep grade column. PRMT5 -MEP50, TIM-MEP50 and TIM barrel were stored in a buffer containing 50 mM HEPES, 250 mM NaCl, 1 mM TCEP with the pH adjusted to 8.0, whereas, pICln was stored in a buffer of 20 mM phosphate, 100 mM NaCl, 5 mM TCEP and pH of 7.5, whereas RioK1 was stored in a buffer of 50 mM Tris, 200 mM NaCl, 10% glycerol, 1 […]
(§6) Protein Labelling with Alexa 488
(§7) To a protein solution (ca. 1 mg/ml) in 0.2 M bicarbonate buffer with 1 mM TCEP at pH 8.3, was added 10 mM Alexa 488 NHS-ester in DMSO (8 equiv), and the mixture was kept on ice, in darkness, overnight. The protein was washed eight times with buffer (50 mM HEPES, 250 mM NaCl, 1 mM TCEP, 8.0 pH) using an Amicon® Ultra-0.5 mL spin filter. Protein concentration was then determined using the NanoDrop […]
Fluorescence Polarisation (FP)
The assay was performed in a buffer of 50 mM HEPES, 250 mM NaCl, 1 mM TCEP, 0.01% (v/v) Tween 20, pH 8.0, in black, 384 well-plates, with a total volume of 10 μl per well. The analysed, FITC labelled peptides, or Alexa488-labelled pICln or RioK1, were tested at a final concentration of 1 nM, and the appropriate unlabelled protein was titrated as two-fold dilution series. The plates were incubated at 20-21 °C for 30 min in case of FITC -labelled peptides or 1-2h in case of the Alexa488-labelled protein, and analysed on a plate reader using 485 nm excitation and 535 nm emission wavelength. The assay was performed in […]

[2] = biological target: T1, native PRMT5–MEP50 complex; test: Competitive fluorescence polarisation binding assay with compound 11 as tracer; details: competitive FP; tracer compound 11 at 1 nM, PRMT5-MEP50 600 nM, unlabelled peptide titrated two-fold; pH 8.0; 30 min, 20-21 °C; n=3
Source text: as §1, §2, §3, §4, §5, §6, §7
Competitive Binding Assay
The competitive binding assay was performed in a buffer of 50 mM HEPES, 250 mM NaCl, 1 mM TCEP, 0.01% (v/v) Tween 20, 8.0 pH, in black, 384 well-plates, with a total volume of 10 μl per well. The FITC labelled peptides were added at the final concentration of 1 nM, were mixed with PRMT5-MEP50 (at the final concentration of 600 nM), and the appropriate non-labelled peptide was titrated as two-fold dilution series. The plates were incubated at 20-21 °C for 30 min and analysed on a plate reader using 485 nm excitation and 535 nm emission wavelength. The experiment was performed in triplicates.

T1 sequence (O14744 whole entry): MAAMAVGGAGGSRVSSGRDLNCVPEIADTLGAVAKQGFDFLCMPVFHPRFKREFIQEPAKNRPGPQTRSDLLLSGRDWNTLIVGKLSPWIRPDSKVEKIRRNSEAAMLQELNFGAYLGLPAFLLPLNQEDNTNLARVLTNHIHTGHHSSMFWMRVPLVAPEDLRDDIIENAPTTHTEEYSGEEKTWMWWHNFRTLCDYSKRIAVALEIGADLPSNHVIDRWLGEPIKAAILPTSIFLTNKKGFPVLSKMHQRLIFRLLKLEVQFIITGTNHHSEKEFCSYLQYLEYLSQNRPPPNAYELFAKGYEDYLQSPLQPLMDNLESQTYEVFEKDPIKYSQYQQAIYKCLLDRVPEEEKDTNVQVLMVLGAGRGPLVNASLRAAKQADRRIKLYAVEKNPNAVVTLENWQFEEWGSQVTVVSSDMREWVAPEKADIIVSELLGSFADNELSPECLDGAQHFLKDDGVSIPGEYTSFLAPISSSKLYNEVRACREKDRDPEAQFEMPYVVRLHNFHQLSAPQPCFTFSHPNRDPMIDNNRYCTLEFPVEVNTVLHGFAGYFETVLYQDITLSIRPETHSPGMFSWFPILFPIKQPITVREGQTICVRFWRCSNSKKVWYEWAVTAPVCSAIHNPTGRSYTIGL
T1 sequence (Q9BQA1 whole entry partner): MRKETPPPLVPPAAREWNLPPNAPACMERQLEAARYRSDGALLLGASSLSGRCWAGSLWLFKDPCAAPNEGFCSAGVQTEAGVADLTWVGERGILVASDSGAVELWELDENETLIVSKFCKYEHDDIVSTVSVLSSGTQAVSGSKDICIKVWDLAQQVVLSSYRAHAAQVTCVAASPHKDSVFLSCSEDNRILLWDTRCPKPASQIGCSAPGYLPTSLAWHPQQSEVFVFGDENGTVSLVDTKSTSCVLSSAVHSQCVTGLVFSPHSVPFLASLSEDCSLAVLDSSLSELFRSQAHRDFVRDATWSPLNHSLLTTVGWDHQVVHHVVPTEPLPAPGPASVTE

Kd [1] | IC50 [2] | also measured | Compound
0.279 ± 0.041 µM | – | – | CSCC[C@H](NC(=O)[C@H](CC(C)C)NC(=O)[C@H](CC(C)C)NC(=O)COCCOCCNC(=S)Nc1ccc2c(c1)C(=O)OC21c2ccc(O)cc2Oc2cc(O)ccc21)C(=O)N[C@@H](CO)C(=O)N[C@@H](CCCNC(=N)N)C(=O)N[C@H](C(=O)N[C@H](C(=O)N1CCC[C@H]1C(=O)NCC(=O)N[C@@H](CCC(N)=O)C(=O)N[C@@H](Cc1ccccc1)C(=O)N[C@@H](CC(=O)O)C(=O)N[C@@H](CC(=O)O)C(=O)N[C@@H](C)C(=O)N[C@@H](CC(=O)O)C(=O)N[C@@H](CO)C(=O)N[C@@H](CO)C(=O)N[C@@H](CC(=O)O)C(N)=O)C(C)C)C(C)C [compound 13] ({FITC-AEEA}-LLMSRVVPGQFDDADSSD-NH2)
0.52 ± 0.04 µM | – | – | CC(C)[C@H](NC(=O)[C@H](CC(=O)O)NC(=O)[C@H](C)NC(=O)[C@H](CC(=O)O)NC(=O)[C@H](CCC(=O)O)NC(=O)[C@H](Cc1ccccc1)NC(=O)[C@H](CCC(N)=O)NC(=O)CNC(=O)[C@H](C)NC(=O)[C@@H](NC(=O)[C@@H](NC(=O)[C@@H]1CCCN1C(=O)[C@@H](NC(=O)COCCOCCNC(=S)Nc1ccc2c(c1)C(=O)OC21c2ccc(O)cc2Oc2cc(O)ccc21)[C@@H](C)O)[C@@H](C)O)C(C)C)C(=O)N[C@@H](CC(=O)O)C(=O)N[C@@H](Cc1c[nH]cn1)C(N)=O [compound 15] ({FITC-AEEA}-TPTVAGQFEDADVDH-NH2)
> 5 µM | – | – | CC(=O)NCC(=O)N[C@@H](CCC(N)=O)C(=O)N[C@@H](Cc1ccccc1)C(=O)N[C@@H](CC(=O)O)C(=O)N[C@@H](CC(=O)O)C(=O)N[C@@H](C)C(=O)N[C@@H](CC(=O)O)C(=O)N[C@@H](CCCCNC(=O)COCCOCCNC(=S)Nc1ccc2c(c1)C(=O)OC21c2ccc(O)cc2Oc2cc(O)ccc21)C(N)=O [compound 9] (Ac-GQFDDADK([AEEA-FITC])-NH2)
> 5 µM | – | – | CC(C)[C@H](NC(=O)[C@H](CCCNC(=N)N)NC(=O)[C@H](CO)NC(=O)COCCOCCNC(=S)Nc1ccc2c(c1)C(=O)OC21c2ccc(O)cc2Oc2cc(O)ccc21)C(=O)N[C@H](C(=O)N1CCC[C@H]1C(=O)NCC(=O)N[C@@H](CCC(N)=O)C(=O)N[C@@H](Cc1ccccc1)C(=O)N[C@@H](CC(=O)O)C(=O)N[C@@H](CC(=O)O)C(N)=O)C(C)C [compound 5] ({FITC-AEEA}-SRVVPGQFDD-NH2)
0.192 ± 0.026 µM | – | – | CSCC[C@H](NC(=O)[C@H](CC(C)C)NC(=O)[C@H](CC(C)C)NC(=O)COCCOCCNC(=S)Nc1ccc2c(c1)C(=O)OC21c2ccc(O)cc2Oc2cc(O)ccc21)C(=O)N[C@@H](CO)C(=O)N[C@@H](CCCNC(=N)N)C(=O)N[C@H](C(=O)N[C@H](C(=O)N1CCC[C@H]1C(=O)NCC(=O)N[C@@H](CCC(N)=O)C(=O)N[C@@H](Cc1ccccc1)C(=O)N[C@@H](CC(=O)O)C(=O)N[C@@H](CC(=O)O)C(=O)N[C@@H](C)C(=O)N[C@@H](CC(=O)O)C(N)=O)C(C)C)C(C)C [compound 12] ({FITC-AEEA}-LLMSRVVPGQFDDAD-NH2)
– | – | K D (Table 2, peptides 1–16) [1]: n.b. | Ac‐FDDADK(O2Oc‐Fitc)‐NH2 [compound 10, N-terminally truncated, C-terminally labelled RioK1 derived peptide]
– | > 300 µM | – | Ac-SRVVPGQADDAD-NH2 [compound 30]
0.716 ± 0.036 µM | – | – | CC(=O)N[C@@H](CO)C(=O)N[C@@H](CCCNC(=N)N)C(=O)N[C@H](C(=O)N[C@H](C(=O)N1CCC[C@H]1C(=O)NCC(=O)N[C@@H](CCC(N)=O)C(=O)N[C@@H](Cc1ccccc1)C(=O)N[C@@H](CC(=O)O)C(=O)N[C@@H](CC(=O)O)C(=O)N[C@@H](C)C(=O)N[C@@H](CC(=O)O)C(=O)N[C@@H](CCCCNC(=O)COCCOCCNC(=S)Nc1ccc2c(c1)C(=O)OC21c2ccc(O)cc2Oc2cc(O)ccc21)C(N)=O)C(C)C)C(C)C [compound 7] (Ac-SRVVPGQFDDADK([AEEA-FITC])-NH2)
– | > 300 µM | – | Ac-SRVVPGAFDDAD-NH2 [compound 31]
– | 6.2 ± 2.2 µM | – | Ac-SRVVPGQFDDAA-NH2 [compound 27]
– | 1.5 ± 0.4 µM | – | Ac-SRVVPGQFDDADSSD-NH2 [compound 23]
– | 6 ± 0.7 µM | – | Ac-SRVVPGQFDDAD-NH2 [compound 26]
– | 6.4 ± 0.3 µM | – | Ac-SRVVPGQFADAD-NH2 [compound 29]
– | 39 ± 8.5 µM | – | Ac-SRVVPAQFDDAD-NH2 [compound 32]
2.38 ± 0.817 µM | – | – | CC(C)[C@H](NC(=O)COCCOCCNC(=S)Nc1ccc2c(c1)C(=O)OC21c2ccc(O)cc2Oc2cc(O)ccc21)C(=O)N[C@@H](CC(=O)O)C(=O)N[C@H](C(=O)N[C@H](C(=O)N1CCC[C@H]1C(=O)N[C@H](C(=O)N[C@H](C(=O)N[C@@H](C)C(=O)NCC(=O)N[C@@H](CCC(N)=O)C(=O)N[C@@H](Cc1ccccc1)C(=O)N[C@@H](CCC(=O)O)C(=O)N[C@@H](CC(=O)O)C(=O)N[C@@H](C)C(=O)N[C@@H](CC(=O)O)C(N)=O)C(C)C)[C@@H](C)O)[C@@H](C)O)[C@@H](C)O [compound 16] ({FITC-AEEA}-VDTTPTVAGQFEDAD-NH2)
– | – | K D (Table 2, peptides 1–16) [1]: n.b. | Fitc‐O2Oc‐TPTVAGQF‐NH2 [compound 14, C-terminally truncated pICln derived Fitc-labelled peptide]
– | 0.9 ± 0.2 µM | – | Ac-ARVVPGQFDDAD-NH2 [compound 37]
– | 14.6 ± 0.9 µM | – | Ac-TPTVAGQFEDAD-NH2 [compound 24]
– | 14 ± 3.4 µM | – | Ac-SRVAPGQFDDAD-NH2 [compound 34]
– | – | K D (Table 2, peptides 1–16) [1]: n.b. | Fitc‐O2Oc‐SRVVPGQF‐NH2 [compound 6, C-terminally truncated RioK1 derived Fitc-labelled peptide]
– | 2.8 ± 0.5 µM | – | Ac-SAVVPGQFDDAD-NH2 [compound 36]
– | 9.9 ± 2.2 µM | – | Ac-SRVVAGQFDDAD-NH2 [compound 33]
– | 4.8 ± 0.7 µM | – | Ac-SRAVPGQFDDAD-NH2 [compound 35]
0.208 ± 0.074 µM | – | – | CC(=O)N[C@H](C(=O)N1CCC[C@H]1C(=O)NCC(=O)N[C@@H](CCC(N)=O)C(=O)N[C@@H](Cc1ccccc1)C(=O)N[C@@H](CC(=O)O)C(=O)N[C@@H](CC(=O)O)C(=O)N[C@@H](C)C(=O)N[C@@H](CC(=O)O)C(=O)N[C@@H](CCCCNC(=O)COCCOCCNC(=S)Nc1ccc2c(c1)C(=O)OC21c2ccc(O)cc2Oc2cc(O)ccc21)C(N)=O)C(C)C [compound 8] (Ac-VPGQFDDADK([AEEA-FITC])-NH2)
– | 3.4 ± 0.2 µM | – | Ac-MVFETGQFDDAED-NH2 [compound 25]
0.295 ± 0.011 µM | – | – | CC(C)[C@H](NC(=O)[C@H](CCCNC(=N)N)NC(=O)[C@H](CO)NC(=O)COCCOCCNC(=S)Nc1ccc2c(c1)C(=O)OC21c2ccc(O)cc2Oc2cc(O)ccc21)C(=O)N[C@H](C(=O)N1CCC[C@H]1C(=O)NCC(=O)N[C@@H](CCC(N)=O)C(=O)N[C@@H](Cc1ccccc1)C(=O)N[C@@H](CC(=O)O)C(=O)N[C@@H](CC(=O)O)C(=O)N[C@@H](C)C(=O)N[C@@H](CC(=O)O)C(=O)N[C@@H](CO)C(=O)N[C@@H](CO)C(=O)N[C@@H](CC(=O)O)C(N)=O)C(C)C [compound 11] ({FITC-AEEA}-SRVVPGQFDDADSSD-NH2)
– | 97 ± 17 µM | – | Ac-SRVVPGQFDAAD-NH2 [compound 28]
